Patent US8211901B2, “Naphthamide derivatives as multi-target protein kinase inhibitors and histone deacetylase inhibitors” (Shenzhen Chipscreen Biosciences Ltd., priority 2009, dated 2012)

What was measured:
[1] = test system: total HDAC enzyme (HeLa extract); experiment: In vitro inhibition of total HDAC enzyme activity (HDAC Fluorimetric Assay/Drug Discovery Kit); format: biochemical
Description: Measurement of In Vitro Inhibition of Total HDAC Enzyme Activity:
The in vitro inhibition of total HDAC enzyme was determined by HDAC Fluorimetric Assay/Drug Discovery Kit (BIOMOL) according to manufacture's instruction. • 1. Add Assay buffer, diluted trichostatin A or test inhibitor to appropriate wells of the microtiter plate. Following table lists examples of various assay types and the additions required for each test.
• 2. Add diluted HeLa extract or other HDAC sample to all wells except those that are to be “No Enzyme Controls” (Blank). • 3. Allow diluted Fluor de Lys™ Substrate and the samples in the microtiter plate to equilibrate to assay temperature (25° C.). • 4. Initiate HDAC reactions by adding diluted substrate (25 μl) to each well and mixing thoroughly. • 5. Allow HDAC reactions to proceed for desired length of time and then stop them by addition of Fluor de Lys™ Developer (50 μl). Incubate plate at room temperature (25° C.) for 10-15 min. • 6. Read samples in a microtiter-plate reading fluorimeter capable of excitation at a wavelength in the range 350-380 nm and detection of emitted light in the range 440-460 nm. Measurement of In Vivo Inhibition of HDAC Subtype Activity: […]

MCF-7 = experiment: Tumor cell proliferation (MTS), MCF-7; format: cell-based; details: Homo sapiens, MCF7; 72 hours, complete medium
Description: (§1) Measurement of In Vivo Cell Proliferation:
(§2) Tumor cells were trypsinized and plated into 96-well plates at 3,000 per well and incubated in complete medium with 10% FBS for 24 hours. Compounds were added over a final concentration range of 100 μmol/L to 100 nmol/L in 0.1% DMSO and incubated for 72 hours in complete medium. The effects on proliferation were determined by addition of MTS reagent (Promega) according to the instruction, incubation for 2 hours at 37° C. in CO2 incubator, and record the absorbance at 490 nm using an ELISA plate reader.
(§3) Human Cell Lines are Listed Below:
MCF-7: Mammary gland adenocarcinoma

[2] = Body weight in SSMC7721 xenograft study (Example 53); format: in vivo, nu/nu mice
Description: The antitumor activity of compound 31 was measured in human SSMC7721 liver cancer xenograft model. The female nu/nu mice of 18˜20 g were fed by normal diet for 3 days. Then the cultured SSMC7721 human liver cancer cells were implanted into the armpit of 50 mice. […] One group was treated with vehicle. One group was treated with sutent, the positive control drug. […] Each group was dosed orally once a day for 30 days. Tumor volumes as established by caliper measurements were recorded twice per week, along with body weights. At the end of study, the mice were killed, and tumors were weighed. The tumor growth inhibition of each group was calculated using the formula {[(the average tumor weight of vehicle group)−(the average tumor weight of drug group)]/(the average tumor weight of vehicle group)}×100%.

A549 = experiment: Tumor cell proliferation (MTS), A549; format: cell-based; details: Homo sapiens, 72 hours, complete medium
Description: as §1, §2, §3
A549: Non small cell lung carcinoma

HCT-8 = experiment: Tumor cell proliferation (MTS), HCT-8; format: cell-based; details: Homo sapiens, 72 hours, complete medium
Description: as §1, §2, §3
HCT-8: Ileocecal colorectal adenocarcinoma

Bel-7402 = experiment: Tumor cell proliferation (MTS), Bel-7402; format: cell-based; details: Homo sapiens, 72 hours, complete medium
Description: as §1, §2, §3
Bel-7402: Hepatocellular carcinoma

A-498 = experiment: Tumor cell proliferation (MTS), A-498; format: cell-based; details: Homo sapiens, A498; 72 hours, complete medium
Description: as §1, §2

HUVEC cells = experiment: VEGF dependent cell proliferation (MTS); format: cell-based; details: Homo sapiens, VEGF 165 50 ng/ml, 72 hours, serum-free medium, read-out: GI50 nM (VEGF ligand-dependent cell proliferation)
Description: VEGF Dependent Cell Proliferation:
HUVEC cells were plated into 96-well plates at 6,000 per well and incubated with serum-free medium for 2 hours. Compounds and VEGF 165 (50 ng/ml) were added and incubated for 72 hours in serum-free medium. The effects on proliferation were determined by addition of MTS reagent (Promega) according to the instruction, incubation for 2 hours at 37° C. in CO2 incubator, and record the absorbance at 490 nm using an ELISA plate reader.

Class I HDAC = experiment: P21 reporter gene assay in HeLa cells; format: cell-based; details: 24 hours
Description: HDAC subtype selectivity inhibition assay of tested compounds was carried out by several reporter gene assays experiments. Briefly, HeLa cells were seeded in 96-well plates the day before transfection to give a confluence of 50-80%. Cells were transfected with one of reporter gene plasmid containing a promoter sequence or response element upstream of a luciferase gene construct using FuGene6 transfection reagent according to the manufacturer's instruction (Roche). The promoters or response elements including p21-promoter was fused upstream to the luciferase gene reporter construct. For normalizing the transfection efficiency, a GFP expression plasmid was cotransfected. Cells were allowed to express protein for 24 hours followed by addition of individual compounds or the vehicle (DMSO). 24 hours later the cells were harvested, and the luciferase assay and GFP assay were performed using corresponding assay kits according to the manufacturer's instructions (Promega).

human PDGFRβ = target: T1, human PDGFRβ (Homo sapiens, UniProt P09619); experiment: PDGF dependent cell proliferation (MTS); format: cell-based; details: PDGFRβ NIH-3T3 cells, PDGF BB 50 ng/ml, 72 hours, serum-free medium; read-out: GI50 nM (PDGF ligand-dependent cell proliferation)
T1 construct: expressed in transfected cells
T1 sequence (P09619 33-1106): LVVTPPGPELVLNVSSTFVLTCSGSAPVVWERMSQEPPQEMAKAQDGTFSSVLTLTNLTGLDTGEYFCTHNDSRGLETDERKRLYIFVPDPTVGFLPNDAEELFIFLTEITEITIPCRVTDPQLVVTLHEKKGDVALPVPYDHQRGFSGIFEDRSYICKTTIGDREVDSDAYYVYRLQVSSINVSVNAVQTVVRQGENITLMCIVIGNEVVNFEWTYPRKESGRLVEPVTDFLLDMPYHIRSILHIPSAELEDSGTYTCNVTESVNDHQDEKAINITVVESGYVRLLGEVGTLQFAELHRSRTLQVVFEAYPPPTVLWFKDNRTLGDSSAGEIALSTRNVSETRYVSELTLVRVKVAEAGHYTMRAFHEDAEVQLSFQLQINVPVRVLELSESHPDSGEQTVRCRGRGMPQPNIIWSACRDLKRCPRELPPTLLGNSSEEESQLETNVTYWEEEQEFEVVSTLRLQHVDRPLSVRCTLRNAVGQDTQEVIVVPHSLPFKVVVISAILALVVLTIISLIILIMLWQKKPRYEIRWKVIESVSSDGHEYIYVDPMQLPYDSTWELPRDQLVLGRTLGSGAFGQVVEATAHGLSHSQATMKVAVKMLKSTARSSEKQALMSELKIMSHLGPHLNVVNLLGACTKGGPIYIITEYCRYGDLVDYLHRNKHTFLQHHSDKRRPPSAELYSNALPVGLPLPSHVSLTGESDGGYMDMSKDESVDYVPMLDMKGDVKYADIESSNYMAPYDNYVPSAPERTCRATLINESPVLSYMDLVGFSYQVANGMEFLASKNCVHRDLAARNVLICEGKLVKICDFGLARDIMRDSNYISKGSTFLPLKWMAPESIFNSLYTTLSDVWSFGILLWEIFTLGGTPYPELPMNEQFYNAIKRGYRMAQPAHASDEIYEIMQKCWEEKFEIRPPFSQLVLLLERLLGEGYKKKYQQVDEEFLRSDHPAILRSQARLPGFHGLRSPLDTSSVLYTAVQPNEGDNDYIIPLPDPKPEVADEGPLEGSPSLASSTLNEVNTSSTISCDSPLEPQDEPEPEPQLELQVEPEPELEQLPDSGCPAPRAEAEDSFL
Description: PDGF Dependent Cell Proliferation:
NIH-3T3 mouse fibroblasts cell line engineered to stably express human PDGFIRβ was constructed and used to evaluate PDGF dependent cell proliferation. PDGFRβ NIH-3T3 cells were plated into 96-well plates at 5,000 per well and incubated with serum-free medium for 24 hours. Compounds and PDGF BB (50 ng/ml) were added and incubated for 72 hours in serum-free medium. The effects on proliferation were determined by addition of MTS reagent (Promega) according to the instruction, incubation for 2 hours at 37° C. in CO2 incubator, and record the absorbance at 490 nm using an ELISA plate reader.

[3] = 2.5 mg/kg orally once a day for 30 days
[4] = 5 mg/kg orally once a day for 30 days
[5] = 10 mg/kg orally once a day for 30 days
[6] = 20 mg/kg orally once a day for 30 days

Row | % inhibition of total HDAC enzyme activity at 30 μM [1] | GI50 (MCF-7) | GI50 (A549) | GI50 (HCT-8) | GI50 (Bel-7402) | GI50 (A-498) | Class I HDAC (P21 reporter assay) Fold Induction at 10 μM (Class I HDAC) | GI50 (human PDGFRβ) | Structure (SMILES) | Body weight (g) end [2, 3] | Body weight (g) start [2, 3] | Body weight (g) end [2, 4] | Body weight (g) start [2, 4] | Body weight (g) end [2, 5] | Body weight (g) start [2, 5] | Body weight (g) end [2, 6] | Body weight (g) start [2, 6] | GI50 (HUVEC cells)
1 | 10.1% | 10.2 µM | 17.3 µM | 6.6 µM | 30 µM | 9.5 µM | 1.6 Fold | 46 nM | COc1ccc2c(Oc3ccc4c(C(=O)Nc5ccccc5N)cccc4c3)ccnc2c1 [Example 31, N-(2-aminophenyl)-6-(7-methoxyquinolin-4-yloxy)-1-naphthamide] | 23.2 ± 2.1 g | 20.1 ± 0.9 g | 24.8 ± 1.5 g | 20.8 ± 1.2 g | 23.6 ± 1.5 g | 20.4 ± 1.6 g | 21.0 ± 2.2 g | 20.2 ± 1.7 g | 5 nM
2 | 39.1% | 2 µM | 2.1 µM | 1.5 µM | 2.8 µM | 1.9 µM | 2.8 Fold | 300 nM | COc1ccc2c(Oc3ccc4c(C(=O)NCc5ccc(C(=O)Nc6ccccc6N)cc5)cccc4c3)ccnc2c1 [Example 33, N-(4-((2-aminophenyl)carbamoyl)benzyl)-6-(7-methoxyquinolin-4-yloxy)-1-naphthamide] |  |  |  |  |  |  |  |  | 8 nM
